Results as given in patent US20230151003A1, “COMPOUNDS AND METHODS OF USE” (Exelixis, Inc., priority 2020, published 2023).
Structures can show the parent of a compound that is named as a salt.

The compounds below were run against T1, Mer (Homo sapiens, UniProt Q12866) (assay: Mer autophosphorylation ELISA in transient transfected 293A cells). Details: Table 3 Cellular Activities; MERTK-transfected 293A cells, phospho-Mer ELISA.
T1 construct: host or cells: 293A cells (Thermo Fisher #R70507)
T1 sequence (Q12866 21-999): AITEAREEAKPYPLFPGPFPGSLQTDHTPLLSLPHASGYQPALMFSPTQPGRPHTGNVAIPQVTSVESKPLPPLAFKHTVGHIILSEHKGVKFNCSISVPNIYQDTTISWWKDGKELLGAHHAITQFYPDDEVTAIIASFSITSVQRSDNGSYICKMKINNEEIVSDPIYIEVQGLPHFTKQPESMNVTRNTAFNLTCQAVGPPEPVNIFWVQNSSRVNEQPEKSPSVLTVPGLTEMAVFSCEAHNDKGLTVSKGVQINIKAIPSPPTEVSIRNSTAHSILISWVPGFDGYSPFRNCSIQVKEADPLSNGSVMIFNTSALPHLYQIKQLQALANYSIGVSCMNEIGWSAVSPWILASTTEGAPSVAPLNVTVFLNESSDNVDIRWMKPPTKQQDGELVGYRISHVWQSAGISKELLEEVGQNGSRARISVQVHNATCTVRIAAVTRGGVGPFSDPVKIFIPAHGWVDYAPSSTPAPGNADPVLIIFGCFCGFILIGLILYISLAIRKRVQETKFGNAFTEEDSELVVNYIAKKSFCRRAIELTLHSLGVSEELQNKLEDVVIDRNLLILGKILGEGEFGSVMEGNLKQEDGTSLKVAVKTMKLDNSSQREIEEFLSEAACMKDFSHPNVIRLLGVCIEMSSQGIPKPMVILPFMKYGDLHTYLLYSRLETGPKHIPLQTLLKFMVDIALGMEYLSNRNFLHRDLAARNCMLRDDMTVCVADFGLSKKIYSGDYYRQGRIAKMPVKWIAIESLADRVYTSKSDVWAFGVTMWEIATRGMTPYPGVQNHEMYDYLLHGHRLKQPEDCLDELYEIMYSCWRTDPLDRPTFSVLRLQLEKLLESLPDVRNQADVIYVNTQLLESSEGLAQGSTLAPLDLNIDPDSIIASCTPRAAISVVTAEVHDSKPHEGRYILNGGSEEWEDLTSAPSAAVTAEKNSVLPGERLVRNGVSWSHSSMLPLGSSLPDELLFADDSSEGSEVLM
Assay type: cell-based
Summary of the method: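 293A cells transiently transfected with human MERTK DNA, replated after 24 h, then treated 1 h with 8-point compound dilutions in serum-free medium (0.3% DMSO). Lysates assayed by phospho-Mer sandwich ELISA against phospho-Mer standard; DMSO = 100%, reference inhibitor = 0% activity; IC50 by 4-parameter logistic fit.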

IC50 | Structure (SMILES)
≤ 100 nM | COc1cc2nccc(Oc3ccc(NC(=O)c4c(C)n(C)cc(-c5ccc(F)cn5)c4=O)cc3F)c2nc1OC [Compound 71, N-[4-[(6,7-Dimethoxy-1,5-naphthyridin-4-yl)oxy]-3-fluorophenyl]-5-(5-fluoropyridin-2-yl)-1,2-dimethyl-4-oxopyridine-3-carboxamide]
≤ 100 nM | COc1cc2nccc(Oc3ccc(NC(=O)c4cc(C(C)=O)c(C)n(-c5ccc(F)cn5)c4=O)cc3F)c2nc1OC [Compound 59, 5-Acetyl-N-[4-[(6,7-dimethoxy-1,5-naphthyridin-4-yl)oxy]-3-fluorophenyl]-1-(5-fluoropyridin-2-yl)-6-methyl-2-oxopyridine-3-carboxamide]
≤ 100 nM | COc1cc2nccc(Oc3ccc(NC(=O)c4cnc(C)c(-c5ccco5)c4O)cc3)c2cc1OC [Compound 258, N-[4-(6,7-Dimethoxyquinolin-4-yl)oxyphenyl]-5-(furan-2-yl)-4-hydroxy-6-methylpyridine-3-carboxamide]
≤ 100 nM | COCCOc1cc2nccc(Oc3ccc(NC(=O)c4c(C)n(C)c(C)c(-c5ccco5)c4=O)cc3F)c2nc1OC [Compound 254, N-[3-Fluoro-4-[[6-methoxy-7-(2-methoxyethoxy)-1,5-naphthyridin-4-yl]oxy]phenyl]-5-(furan-2-yl)-1,2,6-trimethyl-4-oxopyridine-3-carboxamide]
≤ 100 nM | COc1cc2nccc(Oc3ccc(NC(=O)c4c5n(cc(-c6ccco6)c4=O)CCOC5)cc3F)c2nc1OC [Compound 297, N-[4-[(6,7-Dimethoxy-1,5-naphthyridin-4-yl)oxy]-3-fluorophenyl]-7-(furan-2-yl)-8-oxo-3,4-dihydro-1H-pyrido[2,1-c][1,4]oxazine-9-carboxamide]
≤ 100 nM | COc1cc2nccc(Oc3ccc(NC(=O)c4ccc(C)n(-c5cc[n+]([O-])cc5)c4=O)cc3F)c2nc1OC [Compound 231, N-[4-[(6,7-Dimethoxy-1,5-naphthyridin-4-yl)oxy]-3-fluorophenyl]-6-methyl-1-(1-oxidopyridin-1-ium-4-yl)-2-oxopyridine-3-carboxamide]
≤ 100 nM | COCCOc1cc2nccc(Oc3ccc(NC(=O)c4ccc(C)n(-c5ccc(F)cn5)c4=O)cc3F)c2nc1OC [Compound 50, N-[3-Fluoro-4-[[6-methoxy-7-(2-methoxyethoxy)-1,5-naphthyridin-4-yl]oxy]phenyl]-1-(5-fluoropyridin-2-yl)-6-methyl-2-oxopyridine-3-carboxamide]
≤ 100 nM | COc1cc2nccc(Oc3ccc(NC(=O)c4nnc(C)c(-c5ccc(F)cn5)c4OC)cc3F)c2nc1OC [Compound 215, N-[4-[(6,7-Dimethoxy-1,5-naphthyridin-4-yl)oxy]-3-fluorophenyl]-5-(5-fluoropyridin-2-yl)-4-methoxy-6-methylpyridazine-3-carboxamide]
≤ 100 nM | COCc1nc(C)c(-c2ccc(F)cn2)c(O)c1C(=O)Nc1ccc(Oc2ccnc3cc(OC)c(OC)nc23)c(F)c1 [Compound 214, N-[4-[(6,7-Dimethoxy-1,5-naphthyridin-4-yl)oxy]-3-fluorophenyl]-5-(5-fluoropyridin-2-yl)-4-hydroxy-2-(methoxymethyl)-6-methylpyridine-3-carboxamid]
≤ 100 nM | COc1cc2nccc(Oc3ccc(NC(=O)c4ccc(C)n(-c5cccnc5)c4=O)cc3F)c2nc1OC [Compound 222, N-[4-[(6,7-Dimethoxy-1,5-naphthyridin-4-yl)oxy]-3-fluorophenyl]-6-methyl-2-oxo-1-pyridin-3-ylpyridine-3-carboxamide]
≤ 100 nM | COc1cc2nccc(Oc3ccc(NC(=O)c4c5n(cc(-c6cc(C)cs6)c4=O)CCOC5)cc3F)c2nc1OC [Compound 302, N-[4-[(6,7-Dimethoxy-1,5-naphthyridin-4-yl)oxy]-3-fluorophenyl]-7-(4-methylthiophen-2-yl)-8-oxo-3,4-dihydro-1H-pyrido[2,1-c][1,4]oxazine-9-carboxamide]
≤ 100 nM | COc1cc2nccc(Oc3ccc(NC(=O)c4c5n(cc(-c6ccc(C)s6)c4=O)CCOC5)cc3F)c2nc1OC [Compound 304, N-[4-[(6,7-Dimethoxy-1,5-naphthyridin-4-yl)oxy]-3-fluorophenyl]-7-(5-methylthiophen-2-yl)-8-oxo-3,4-dihydro-1H-pyrido[2,1-c][1,4]oxazine-9-carboxamide]
≤ 100 nM | COc1cnc2c(Oc3ccc(NC(=O)c4cn(CCF)c(C)c(-c5cc(C)cs5)c4=O)cc3F)ccnc2c1 [Compound 328, 1-(2-Fluoroethyl)-N-[3-fluoro-4-[(7-methoxy-1,5-naphthyridin-4-yl)oxy]phenyl]-6-methyl-5-(4-methylthiophen-2-yl)-4-oxopyridine-3-carboxamide]
300 to 1000 nM | COc1cc2nccc(Oc3ccc(NC(=O)c4cccn(-c5ccnc(O)c5)c4=O)cc3F)c2nc1OC [Compound 248, N-[4-[(6,7-Dimethoxy-1,5-naphthyridin-4-yl)oxy]-3-fluorophenyl]-1-(2-hydroxypyridin-4-yl)-2-oxopyridine-3-carboxamide hydrochloride]
≤ 100 nM | COc1cc2nccc(Oc3ccc(NC(=O)c4ccc(C)n(-c5ccnc(O)c5)c4=O)cc3F)c2nc1OC [Compound 232, N-[4-[(6,7-Dimethoxy-1,5-naphthyridin-4-yl)oxy]-3-fluorophenyl]-1-(2-hydroxypyridin-4-yl)-6-methyl-2-oxopyridine-3-carboxamide]
≤ 100 nM | COc1cc2nccc(Oc3ccc(NC(=O)c4ccc(C)n(-c5cccnn5)c4=O)cc3F)c2nc1OC [Compound 234, N-[4-[(6,7-Dimethoxy-1,5-naphthyridin-4-yl)oxy]-3-fluorophenyl]-6-methyl-2-oxo-1-pyridazin-3-ylpyridine-3-carboxamide]
≤ 100 nM | COc1cc2nccc(Oc3ccc(NC(=O)c4c(C)ncc(-c5ccc(F)cn5)c4O)cc3F)c2nc1OC [Compound 68, N-[4-[(6,7-Dimethoxy-1,5-naphthyridin-4-yl)oxy]-3-fluorophenyl]-5-(5-fluoropyridin-2-yl)-4-hydroxy-2-methylpyridine-3-carboxamide]
≤ 100 nM | COc1cc2nccc(Oc3ccc(NC(=O)c4ccc(C)n(-c5ccnc(C)c5)c4=O)cc3F)c2nc1OC [Compound 230, N-[4-[(6,7-Dimethoxy-1,5-naphthyridin-4-yl)oxy]-3-fluorophenyl]-6-methyl-1-(2-methylpyridin-4-yl)-2-oxopyridine-3-carboxamide]
≤ 100 nM | COCCOc1cc2nccc(Oc3ccc(NC(=O)c4cnc(C)c(-c5ccco5)c4O)cc3F)c2nc1OC [Compound 260, N-[3-Fluoro-4-[[6-methoxy-7-(2-methoxyethoxy)-1,5-naphthyridin-4-yl]oxy]phenyl]-5-(furan-2-yl)-4-hydroxy-6-methylpyridine-3-carboxamide]
≤ 100 nM | COc1cc2c(Oc3ccc(NC(=O)c4c(C)ncc(-c5ccccn5)c4O)cc3F)ccnc2cn1 [Compound 223, N-[3-Fluoro-4-[(6-methoxy-1,7-naphthyridin-4-yl)oxy]phenyl]-4-hydroxy-2-methyl-5-pyridin-2-ylpyridine-3-carboxamide]
≤ 100 nM | COc1cc2nccc(Oc3ccc(NC(=O)c4c(C)nc(C)c(-c5ccc(F)cn5)c4O)cc3)c2nc1OC [Compound 216, N-[4-[(6,7-Dimethoxy-1,5-naphthyridin-4-yl)oxy]phenyl]-5-(5-fluoropyridin-2-yl)-4-hydroxy-2,6-dimethylpyridine-3-carboxamide]
≤ 100 nM | Cc1ccc(C(=O)Nc2ccc(Oc3ccnc4cccnc34)c(F)c2)c(=O)n1-c1ccc(F)cn1 [Compound 48, N-[3-Fluoro-4-(1,5-naphthyridin-4-yloxy)phenyl]-1-(5-fluoropyridin-2-yl)-6-methyl-2-oxopyridine-3-carboxamide]
≤ 100 nM | COc1cc2nccc(Oc3ccc(NC(=O)c4cnc(C)c(-c5ccc(F)cn5)c4O)cc3F)c2nc1OC [Compound 85, N-[4-[(6,7-Dimethoxy-1,5-naphthyridin-4-yl)oxy]-3-fluorophenyl]-5-(5-fluoropyridin-2-yl)-4-hydroxy-6-methylpyridine-3-carboxamide]
≤ 100 nM | COc1cc2nccc(Oc3ccc(NC(=O)c4cc(C(C)=O)c(C)n(-c5ccco5)c4=O)cc3F)c2nc1OC [Compound 236, 5-Acetyl-N-[4-[(6,7-dimethoxy-1,5-naphthyridin-4-yl)oxy]-3-fluorophenyl]-1-(furan-2-yl)-6-methyl-2-oxopyridine-3-carboxamide]
